Test [1] can be described thus: cells. Conditions: Mus musculus, HEK-293T, 5 min, read-out: pEC50 (converted).
Test [2] has as its system HEK293T. The test can be described thus: Antagonist activity at mouse succinate receptor 1 N181.31E/K2697.32N mutant expressed in HEK293T cells co-transfected with Galphai-Rluc8/Ggamma8-GFP2/Gbeta3 assessed as inhibition of succinate induced G protein activation incubated for 5 mins by luminescence based BRET assay. It is filed as cell-based. (In BRET a luciferase serves as donor, and the signal depends on an acceptor being close.)

In test [3] the test system is HEK293T. The test can be described thus: Antagonist activity at mouse succinate receptor 1 N181.31E/K2697.32N/G84EL1W mutant expressed in HEK293T cells co-transfected with Galphai-Rluc8/Ggamma8-GFP2/Gbeta3 assessed as inhibition of succinate induced G protein activation incubated for 5 mins by luminescence based BRET assay. In kind it is cell-based. The conditions noted are these: filed as antagonist.

Test [4] addresses T1, Succinate receptor 1 (Homo sapiens, UniProt Q9BXA5).
T1 sequence (Q9BXA5 whole entry): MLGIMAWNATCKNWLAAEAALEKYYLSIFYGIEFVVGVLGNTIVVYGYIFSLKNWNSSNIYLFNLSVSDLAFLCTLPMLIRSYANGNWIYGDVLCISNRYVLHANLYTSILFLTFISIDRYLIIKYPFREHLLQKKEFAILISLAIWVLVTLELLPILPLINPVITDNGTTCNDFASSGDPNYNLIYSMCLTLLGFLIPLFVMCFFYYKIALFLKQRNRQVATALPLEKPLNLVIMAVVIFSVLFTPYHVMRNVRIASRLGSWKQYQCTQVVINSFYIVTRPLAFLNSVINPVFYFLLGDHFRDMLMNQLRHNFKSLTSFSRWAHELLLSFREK
The test can be described thus: Competitive binding affinity to N-terminal Nluc-tagged human succinate receptor 1 expressed in Flp-In-T-REx-293 cells assessed as inhibition constant incubated for 5 mins in the presence of TUG-2465 by BRET assay. It is filed as cell-based.

Test [5] in a line: Competitive binding affinity to humanized mouse succinate receptor 1 N181.31E/K2697.32N/G84EL1W mutant assessed as inhibition constant incubated for 5 mins in the presence of TUG-2384 by BRET assay.
Test [6] concerns the target T2, Succinate receptor 1 (Homo sapiens) (UniProt Q9BXA5).
T2 sequence (whole entry): T1 sequence (Q9BXA5 whole entry)
The conditions noted are these: Flp-In-T-REx-293, filed as agonist, time 30.0 min.

The source made the active and inactive calls. The calls are words filed in the database; no cut-off is given here.

On to `O=C(O)CCC(=O)O` [SUCCINIC ACID], for which the EC50 in test [1] is 52.5 µM. Consider `CN1CCN(Cc2ccc(-c3cccc(C(=O)Nc4ccccc4CC(=O)O)c3)cc2)CC1`, for which, in test [2], the outcome was inactive. The result in test [3] was Active. For the compound `O=C(O)CCc1cccc(Oc2ccc(Oc3cccc4cnccc34)cc2C(F)(F)F)c1`, the inhibition constant Ki – broadly, a measure of affinity in units of concentration, obtained from inhibition or displacement – in test [4] was 7.94 µM. Also, in test [5], the negative logarithm of the Ki (pKi) (as a rule, −log10 of the Ki, conventionally taken in molar units) is recorded as under 4.5. For the compound `CC(C)(C)OC(=O)NCCCCCCOc1ccc(-c2cccc(C(=O)Nc3ccccc3CC(=O)O)c2)cc1`, the pEC50 result in test [6] is “Active”.

These data come from ChEMBL document CHEMBL5331113 (J Med Chem, 2023).
